The record followed here is PMC7447640, “Synthesis, antioxidant properties and neuroprotection of α-phenyl-tert-butylnitrone derived HomoBisNitrones in in vitro and in vivo ischemia models” (Scientific Reports, 2020).

This experiment deals with T1, soybean lipoxygenase (LOX) (Glycine max, UniProt P08170).
T1 construct: gene LOX1.1
T1 sequence (P08170 1-839): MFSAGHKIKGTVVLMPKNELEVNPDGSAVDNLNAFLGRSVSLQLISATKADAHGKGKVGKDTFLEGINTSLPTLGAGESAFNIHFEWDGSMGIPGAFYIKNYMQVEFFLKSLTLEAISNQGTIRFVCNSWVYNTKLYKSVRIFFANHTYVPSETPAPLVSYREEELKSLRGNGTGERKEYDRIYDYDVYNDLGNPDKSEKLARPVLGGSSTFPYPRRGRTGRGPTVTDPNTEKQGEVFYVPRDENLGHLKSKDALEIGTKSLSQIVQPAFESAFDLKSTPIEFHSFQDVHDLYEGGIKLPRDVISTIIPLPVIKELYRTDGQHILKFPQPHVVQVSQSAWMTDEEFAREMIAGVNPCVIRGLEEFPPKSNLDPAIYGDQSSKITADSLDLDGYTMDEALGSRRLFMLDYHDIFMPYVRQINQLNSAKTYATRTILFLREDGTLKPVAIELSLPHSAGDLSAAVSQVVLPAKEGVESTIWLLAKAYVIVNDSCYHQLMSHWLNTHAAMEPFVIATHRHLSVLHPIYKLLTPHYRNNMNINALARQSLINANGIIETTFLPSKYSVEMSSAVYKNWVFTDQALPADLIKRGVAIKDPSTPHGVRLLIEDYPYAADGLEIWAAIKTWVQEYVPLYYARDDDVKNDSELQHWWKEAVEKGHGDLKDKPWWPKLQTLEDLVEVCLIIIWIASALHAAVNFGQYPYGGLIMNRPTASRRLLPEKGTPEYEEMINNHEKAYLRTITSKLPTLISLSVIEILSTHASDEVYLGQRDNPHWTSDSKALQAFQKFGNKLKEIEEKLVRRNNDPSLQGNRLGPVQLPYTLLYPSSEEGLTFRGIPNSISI
Nature of the experiment: soybean lipoxygenase, linoleate oxidation at […] nm. It is filed as biochemical. To be noted: read-out: LOX inhibition (IC50 [μM]/%).
Regarding `C/[N+]([O-])=C/c1ccccc1/C=[N+](/C)[O-]` [HBN7, (1Z,1′Z)-1,1′-(1,2-Phenylene)bis(N-methylmethanimineoxide)], the IC50 worked out at 60 µM.
On to `CC(C)(C)/[N+]([O-])=C/c1ccccc1/C=[N+](\[O-])C(C)(C)C` [HBN8, (1Z,1′Z)-1,1′-(1,2-Phenylene)bis(N-tert-butylmethanimineoxide)], for which the IC50 is 57.5 µM.
In the case of `[O-]/[N+](=C\c1ccccc1/C=[N+](\[O-])Cc1ccccc1)Cc1ccccc1` [HBN9, (1Z,1′Z)-1,1′-(1,2-Phenylene)bis(N-benzylmethanimineoxide)] it was 85 µM.
